In one assay the test system is carragenin rat paw edema. As to the kind of experiment: Anti inflammatory activity test (Winter, 1962), carragenin rat paw edema. Type of assay: in vivo, Wistar rats. The note with it: peroral in CMC 1%, inhibition of rat paw edema volume, doses 10-80 mg/kg bw. The source says: ANTI INFLAMMATORY ACTIVITY TEST (WINTER, 1962)
Carragenin was used as an inflammatory agent. The volum inhibition of rat paw edema following peroral administration of various doses of the sysnthetic compounds in 1% CMC in comparison to that of control was used to determine the activity of the compounds. In order to evaluate the anti-inflammatory of each compound. Wistar rats (body weight ranging from 200-250 g) were used and divided randomly into 5 groups: one group served as or control and 4 groups were treatment groups. The control group received the vehicle CMC; (Carboxy Methyl Cellulose […]), while the treatment groups received the synthetic compound per orally in CMC 1%. Doses of 10, 20, 40 and 80 mg/kg bw were given to the animals. Where one hour later the animals received a subplantar injection of 0.05 ml of carragenin suspension in saline solution (NaCi 0.9%)- The volumes of rat paw edema were measured immediately and every half an hour following the subplantar injection for 5 hours.

The subject of assay [1] is lipid peroxidation (microsome). The experiment in a line: Anti oxidation test (Haenen and Bast, 1983), lipid peroxidation. Type of assay: biochemical. The note with it: malondialdehyde (TBA), microsome 2 mg protein/ml, 37° C., absorbance 535 nm. How it is done: ANTI OXIDATION […], 1983) Anti oxidative activity (lipid peroxidation) was determined by measuring the reactive form of thiobarbituric acid, i.e. malondialdehyde. The synthetic compound with final concentration of 0.5; 1.0; 2.0; 4.0 microM was put into glass tubes. […] The mixture was pre-incubated at 37° C. for 5 minutes. Lipid peroxidation was initiated with the addition of ferro sulphate (0.5 ml, 10 microN) and incubated at 37° C. for 5 minutes, the reaction was stopped by addition of aliquot (0.3 ml) to the mixture of TCA, TBA, and BHT (2 ml) in cold. After heating (80° C.) for 15 minutes and centrifugation (15 minutes), absorbance was read at 535 nm.

The test system of the next assay is B. subtilis. As to the kind of experiment: Anti bacterial and antifungal activity test. Type of assay: cell-based. The note with it: in DMSO, 37° C. 24 hours. How it is done:
(§1) ANTI BATERIAL AND ANTIFUNGAL ACTIVITY TEST
(§2) Sterile medium of Bacto Muller Hinton was melted at 45-50° C. and poured (25 ml) into a sterile Petric dish (100 mm in diameter), and was left at room temperature for 1 hour. The sterility was checked by overnight incubation (37° C.). The media was immediately used. The microorganism used was gram positive and gram negative. The drug solutions of 0.1, 0.2 and 0.4% in DMSO were used. Incubation was performed at 37° C. for 24 hours.

The next assay deals with C. albicans. As to the kind of experiment: Anti bacterial and antifungal activity test. The note with it: in DMSO, 37° C. 24 hours. The assay is classed as cell-based. How it is done: as §1, §2
The subject of the next assay is S. Aureus. As to the kind of experiment: Anti bacterial and antifungal activity test. Type of assay: cell-based. The note with it: in DMSO, 37° C. 24 hours. How it is done: as §1, §2
A further assay relates to S. pheumoniae. The experiment in a line: Anti bacterial and antifungal activity test. Type of assay: cell-based, S. pneumoniae. The note with it: in DMSO, 37° C. 24 hours. How it is done:
as §1, §2

SMILES strings stand for the structures. pIC50: −log10 of the molar value.

Take `O=C1C(=Cc2cc(Cl)c(O)c(Cl)c2)CCC1=Cc1cc(Cl)c(O)c(Cl)c1` [PGV-6]: the “ED 50” value in the assay on carragenin rat paw edema turned out to be 20 mg/kg.bb. Also, the pIC50 (as a rule, the IC50 on a negative log10 scale, so that one unit is a factor of ten) in assay [1] was 4.83. Moreover, the “Minimum Inhibition Concentration” value stood at 0.20% in the assay on B. subtilis, 0.25% in the assay on C. albicans, 0.25% in the assay with S. Aureus and 0.10% with S. pheumoniae.

Regarding `O=C1C(=Cc2cc(Cl)c(O)c(Cl)c2)CCCC1=Cc1cc(Cl)c(O)c(Cl)c1` [HGV-6], the “ED 50” value with carragenin rat paw edema was found to be 25 mg/kg.bb. Further, the “Minimum Inhibition Concentration” value in the assay on B. subtilis worked out at 0.25%; in the assay with C. albicans it was 0.25%; in the assay on S. Aureus it was 0.35%; with S. pheumoniae, 0.05%.

Turning to `COc1cc(/C=C2/CCC/C(=C/c3cc(OC)c(O)c(OC)c3)C2=O)cc(OC)c1O` [HGV-5], in the assay with carragenin rat paw edema, the “ED 50” value turned out to be 222 mg/kg.bb. This molecule also gave a pIC50 in assay [1] of 5.77.

Take `COc1cc(/C=C2/CC/C(=C/c3cc(OC)c(O)c(OC)c3)C2=O)cc(OC)c1O` [PGV-5]: the “ED 50” value with carragenin rat paw edema is 48 mg/kg.bb. The molecule also had a pIC50 in assay [1] of 6.00.

Take `O=C(C=Cc1cc(Cl)c(O)c(Cl)c1)C=Cc1cc(Cl)c(O)c(Cl)c1` [GVT-6, 1,5-bis (4-hydroxy-3,5-dichlorophenyl)-1,4-pentadiene-3-one]: the “Minimum Inhibition Concentration” value in the assay with B. subtilis is 0.30%; in the assay on C. albicans, 0.25%; in the assay on S. Aureus it was 0.25%; in the assay on S. pheumoniae, 0.05%.

With `Cc1cc(/C=C2\CC/C(=C\c3cc(C)c(O)c(C)c3)C2=O)cc(C)c1O` [PGV-1], the “ED 50” value with carragenin rat paw edema is recorded as 86 mg/kg.bb. For the same molecule, the pIC50 in assay [1] is 5.66.

On to `CCc1cc(C=C2CCCC(=Cc3cc(CC)c(O)c(CC)c3)C2=O)cc(CC)c1O` [HGV-2], for which the “ED 50” value with carragenin rat paw edema amounted to 20 mg/kg.bb. The molecule further showed a pIC50 in assay [1] of 5.71.

For the molecule `CCc1cc(/C=C2\CC/C(=C\c3cc(CC)c(O)c(CC)c3)C2=O)cc(CC)c1O` [PGV-2], the “ED 50” value with carragenin rat paw edema amounted to 80 mg/kg.bb. Further, the negative-log IC50 (pIC50) in assay [1] is 5.66.

The record behind these values is patent US6541672B1, “Derivatives of benzilidine cyclohexanone, benzilidine cyclopentanone, and benzilidine acetone and their synthesis” (Faculty of Pharmacy, The University of Gadjah Mada, priority 1997, dated 2003).
